Assay results as given in patent US9884063B2, “Amido-substituted azole compounds” (Bayer Pharma Aktiengesellschaft, priority 2014, dated 2018).

The molecules below were run against T1, TNKS1 (Homo sapiens, UniProt O95271) (assay: Modified TNKS1 Assay 3 (BPS kit #80573, biotin-NAD+, 96 well)). Conditions: human TNKS1, BPS kit #80573, 96 well.
T1 sequence (O95271 1-1327): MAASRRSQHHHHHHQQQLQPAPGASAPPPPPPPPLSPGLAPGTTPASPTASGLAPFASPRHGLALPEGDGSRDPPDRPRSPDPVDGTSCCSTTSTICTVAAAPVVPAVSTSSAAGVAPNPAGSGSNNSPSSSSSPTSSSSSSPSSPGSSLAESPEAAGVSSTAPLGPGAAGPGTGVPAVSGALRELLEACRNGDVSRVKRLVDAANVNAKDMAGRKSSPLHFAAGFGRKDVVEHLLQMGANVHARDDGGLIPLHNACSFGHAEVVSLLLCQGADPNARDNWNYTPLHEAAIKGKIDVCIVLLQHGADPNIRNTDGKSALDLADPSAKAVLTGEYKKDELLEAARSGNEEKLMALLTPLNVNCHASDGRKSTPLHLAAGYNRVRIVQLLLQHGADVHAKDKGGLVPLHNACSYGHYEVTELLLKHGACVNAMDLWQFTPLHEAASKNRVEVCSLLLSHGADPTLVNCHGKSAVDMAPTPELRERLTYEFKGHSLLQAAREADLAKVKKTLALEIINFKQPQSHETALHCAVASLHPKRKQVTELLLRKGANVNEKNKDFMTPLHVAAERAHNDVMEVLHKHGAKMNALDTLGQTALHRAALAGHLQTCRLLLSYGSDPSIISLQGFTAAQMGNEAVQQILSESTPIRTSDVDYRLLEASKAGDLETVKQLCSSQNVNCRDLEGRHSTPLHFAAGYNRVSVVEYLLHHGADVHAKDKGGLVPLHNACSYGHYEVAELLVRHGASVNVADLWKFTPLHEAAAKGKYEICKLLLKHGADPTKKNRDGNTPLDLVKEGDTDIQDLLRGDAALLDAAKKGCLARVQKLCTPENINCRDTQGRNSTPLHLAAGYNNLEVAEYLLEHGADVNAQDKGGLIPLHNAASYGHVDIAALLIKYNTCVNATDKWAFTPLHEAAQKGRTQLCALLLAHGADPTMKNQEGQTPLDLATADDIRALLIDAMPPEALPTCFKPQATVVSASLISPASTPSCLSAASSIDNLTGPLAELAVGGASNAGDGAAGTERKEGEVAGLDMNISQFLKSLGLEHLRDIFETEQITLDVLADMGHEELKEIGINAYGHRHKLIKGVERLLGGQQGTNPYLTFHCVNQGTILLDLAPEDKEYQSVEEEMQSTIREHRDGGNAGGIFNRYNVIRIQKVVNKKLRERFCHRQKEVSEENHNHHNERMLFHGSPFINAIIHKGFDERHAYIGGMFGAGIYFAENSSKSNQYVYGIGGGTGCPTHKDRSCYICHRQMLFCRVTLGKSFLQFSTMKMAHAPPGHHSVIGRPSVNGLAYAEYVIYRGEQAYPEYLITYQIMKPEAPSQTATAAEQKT
Type: biochemical
In short: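 Chemiluminescent assay of TNKS1-catalysed ribosylation of a protein substrate with biotin-labelled NAD+, detected via streptavidin-HRP; run per kit protocol. Inhibition lowers the signal, and IC50 is the compound concentration halving the normalised readout.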

First: CC(CN1CCOCC1)NC(=O)c1[nH]cnc1C(=O)Nc1ccc(NC(=O)c2ccc(F)cc2Cl)cc1 (single isomer, unassigned; enantiomer 2) [Example 270, N^4-{4-[(2-chloro-4-fluorobenzoyl)amino]phenyl}-N^5-[1-(morpholin-4-yl)propan-2-yl]-1H-imidazole-4,5-dicarboxamide (enantiomer 2)]
Second: C[C@@H]1CCCN(CCNC(=O)c2[nH]cnc2C(=O)Nc2ccc(NC(=O)c3ccc(F)cc3Cl)cc2)C1 [Example 278, N^4-{4-[(2-chloro-4-fluorobenzoyl)amino]phenyl}-N^5-{2-[(3R)-3-methylpiperidin-1-yl]ethyl}-1H-imidazole-4,5-dicarboxamide]
The IC50 of the first is higher: 7 nM for the first, less than 0.5 nM for the second.

First: CN(C)CCNC(=O)c1nc[nH]c1C(=O)Nc1ccc(NC(=O)c2ccc(F)cc2Cl)cc1 [Example 22, N^4-{4-[(2-chloro-4-fluorobenzoyl)amino]phenyl}-N^5-[2-(dimethylamino)ethyl]-1H-imidazole-4,5-dicarboxamide]
Second: O=C(Nc1ccc(NC(=O)c2[nH]cnc2C(=O)NCCN2CCCCC2)cc1)c1ccc(F)cc1Cl [Example 32, N^4-{4-[(2-chloro-4-fluorobenzoyl)amino]phenyl}-N^5-[2-(piperidin-1-yl)ethyl]-1H-imidazole-4,5-dicarboxamide]
The IC50 of the first is 3.8-fold higher: 30 nM for the first, 8 nM for the second. The second is the more potent here.

Going from `O=C(Nc1ccc(NC(=O)c2[nH]cnc2C(=O)NC2CC2)cc1)c1cc(F)c(F)cc1Cl` [Example 51, N^5-{4-[(2-chloro-4,5-difluorobenzoyl)amino]phenyl}-N^4-cyclopropyl-1H-imidazole-4,5-dicarboxamide] to `O=C(Nc1ccc(NC(=O)c2[nH]cnc2C(=O)N2CC3(COC3)C2)cc1)c1cc(F)c(F)cc1Cl` [Example 52, N-{4-[(2-chloro-4,5-difluorobenzoyl)amino]phenyl}-4-(2-oxa-6-azaspiro[3.3]hept-6-ylcarbonyl)-1H-imidazole-5-carboxamide], the IC50 rises from 230 nM to greater than 500 nM.

Compared with `CS(=O)(=O)c1ccc(C(=O)Nc2ccc(NC(=O)c3[nH]cnc3C(=O)NCCN3CCCCC3)cc2)c(Cl)c1` [Example 53, N^5-(4-{[2-chloro-4-(methylsulfonyl)benzoyl]amino}phenyl)-N^4-[2-(piperidin-1-yl)ethyl]-1H-imidazole-4,5-dicarboxamide], `CNC(=O)c1nc[nH]c1C(=O)Nc1ccc(NC(=O)c2ccc(S(C)(=O)=O)cc2Cl)cc1` [Example 55, N^5-(4-{[2-chloro-4-(methylsulfonyl)benzoyl]amino}phenyl)-N^4-methyl-1H-imidazole-4,5-dicarboxamide] is 15-fold higher in IC50: 2 nM for the first, 30 nM for the second. The first is the more potent here.

Compared with `CNC(=O)c1nc[nH]c1C(=O)Nc1ccc(NC(=O)c2ccc(F)cc2Br)cc1` [Example 56, N^5-{4-[(2-bromo-4-fluorobenzoyl)amino]phenyl}-N^4-methyl-1H-imidazole-4,5-dicarboxamide], `CNC(=O)c1nc[nH]c1C(=O)Nc1ccc(NC(=O)c2ccc(F)cc2I)cc1` [Example 61, N^5-{4-[(4-fluoro-2-iodobenzoyl)amino]phenyl}-N^4-methyl-1H-imidazole-4,5-dicarboxamide] is 1.6-fold higher in IC50: 90 nM for the first, 140 nM for the second. The first is the more potent here.

First: Cc1nc(C(=O)Nc2ccc(NC(=O)c3ccc(F)cc3Cl)cc2)c(C(=O)NCCN2CCCCC2)[nH]1 [Example 67, N^4-{4-[(2-chloro-4-fluorobenzoyl)amino]phenyl}-2-methyl-N^5-[2-(piperidin-1-yl)ethyl]-1H-imidazole-4,5-dicarboxamide]
Second: C[C@@H]1CCCCN1CCNC(=O)c1[nH]cnc1C(=O)Nc1ccc(NC(=O)c2ccc(F)cc2Cl)cc1 [Example 267, N^4-{4-[(2-chloro-4-fluorobenzoyl)amino]phenyl}-N^5-{2-[(2R)-2-methylpiperidin-1-yl]ethyl}-1H-imidazole-4,5-dicarboxamide]
The IC50 of the first is 4-fold lower: 5 nM for the first, 20 nM for the second. The first is the more potent here.
